Laboratory results reported in patent publication US7220576B2, “Methods and compositions for protein expression and purification” (Lifesensors, Inc., priority 2002, dated 2007).
“And” between values parts separate entries of the source, which are not always exact repeats. Equal values may be shown once. “Also recorded” adds a separate entry of the source. Non-standard residues stand in square brackets, D forms with d. Residues, ends and D or L forms follow the SMILES beside them. *: point of attachment. Sta = CC(C)C[C@H](N)[C@@H](O)CC(=O)O; Isovaleryl = CC(C)CC(=O)*

Legend:
Ulp1 Hydrolase = biological target: T1, Ulp1 Hydrolase (Saccharomyces cerevisiae, UniProt Q02724); assay: In vitro Ulp1 cleavage of His6SUMO-GFP under various additives/conditions; type: biochemical, yeast; conditions: for Ulp1 activity remaining: 0.5 M Gdm HCl, hydrochloride
T1 construct: C-terminal His-tagged SUMO hydrolase/protease Ulp (403–621)p (21) (27) was expressed from pET24d; His tag (C); made in house; host or cells: E. coli Rosetta (DE3) pLysS, vector pET24d
T1 sequence (Q02724 403-621): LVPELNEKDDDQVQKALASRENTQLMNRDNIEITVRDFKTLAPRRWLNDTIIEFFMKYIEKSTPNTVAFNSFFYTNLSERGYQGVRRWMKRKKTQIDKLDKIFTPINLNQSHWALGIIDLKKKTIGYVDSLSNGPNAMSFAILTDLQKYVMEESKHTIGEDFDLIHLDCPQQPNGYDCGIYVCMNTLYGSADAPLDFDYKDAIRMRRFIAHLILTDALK
Procedure: Ni-NTA purified His6SUMO-GFP was incubated with Ulp1 under the indicated conditions for one hour at room temperature unless indicated otherwise. Low molecular weight markers (LMW) are also provided.
Ni-NTA purified His6SUMO-GFP was incubated with Ulp1 and 10 mM of various protease inhibitors for 1 hour at room temperature. Lane markers: Norm is addition of Ulp1 and N-ethymaleimide (NEM) to the substrate at the same time, Pre is the incubation of Ulp1 with NEM prior to the addition of substrate, +Ve is the absence of any inhibitor, −Ve is in the absence of Ulp1, lane 1 is with E-64, lane 2 is with EDTA, lane 3 is with leupeptin, lane 4 is with NEM, lane 5 is with pepstatin, lane 6 is with TLCK. Low molecular weight markers (LMW) are also provided.
The effects of various additives/conditions and temperature upon the in vitro cleavage reaction were determined as follows: His6smt3MeGFP was expressed from pET24d in Rosetta (DE3) pLysS (Novagen). The recombinant protein was purified as before using Ni-NTA agarose (Qiagen) and then buffer exchanged into 20 mM Tris-HCl pH 8.0, 150 mM NaCl and 5 mM β-mercaptoethanol using a PD-10 column (AP Biotech). Cleavage reactions were performed with 100 ug of the purified protein, 0.5 ul of enzyme, the appropriate amount of a stock solution of additive to generate the final concentrations listed in Table 4, plus the exchange buffer up to a final volume of 200 ul. Reactions were incubated for 1 hour at 37° C. except for those at 4° C. were incubated for 3 hours. […] Generally, His tagged proteins are purified on nickel columns and eluted with imidazole.

E. coli [1] = assay: Soluble versus insoluble fraction of fusion proteins expressed in E. coli; type: cell-based
Procedure: E. coli were harvested by mild centrifugation and washed once with PBS buffer. Cells were resuspended in 4 ml of PBS and ruptured by several pulses of sonication. Unbroken cells were removed by mild centrifugation (5 min at 1500×g) and supernatants were sonicated again to ensure complete cell lysis. An aliquot (5 μl) was mixed with 2% SDS to ensure that no viscosity is detected owing to lysis of unbroken cells. After ensuring that no unbroken cells remained in the lysate, insoluble material consisting of cell walls, inclusion bodies and membrane fragments was sedimented by centrifugation (18,000×g for 10 min). The supernatant was considered “Soluble fraction”.
The pellets were washed from any remaining soluble proteins, lipids and peptidoglycan as follows. Pellets were resuspended in 600 μl of PBS and to the suspensions 600 μl of solution containing 3 M urea and 1% Tri ton X100 was added. The suspension was briefly vortexed and insoluble material was collected by centrifugation as above. […]
Human nuclear receptor proteins, such as steroid receptors, contain ligand-binding domains. […] The ligand-binding domain of LXR was expressed as SUMO fusion in Rosetta plysS cell at 20° C. or 37° C. and the pattern of soluble and insoluble protein was analyzed. […] The original induced culture (I), supernatant from lysed cells (S) and resuspended pellet (P) were analyzed on 12% SDS-PAGE. […]

E. coli [2] = assay: GFP fluorescence in soluble fractions of E. coli; type: cell-based; conditions: 37° C., approx. 0.1 mg soluble protein, Ex 485 nm/Em 510 nm
Procedure: GFP fluorescence was measured in soluble fractions (approx. 0.1 mg of soluble protein in a final volume of 40 μl) using Fluoroscan Accent FL fluorometer (LabSystems) with Excitation 485 nm/Emission 510 nm filter set with the exposure set to 40 sec. The data are presented in Arbitrary Units (AU).
The design and construction of all the UBL E. coli expression vectors has been described above. The DNA sequences, accession numbers of the UBL-GFP fusion proteins, and translation frames are shown FIGS. 25–32. […] Un-fused GFP is generally poorly expressed in E. coli. […] Induced cells were broken by sonication and soluble proteins were analyzed on SDS-polyacrylamide gels. […] To determine if the fusion proteins were folded correctly, we determined the fluorescence properties of proteins in the soluble fraction.

SUMO hydrolase Ulp1 = biological target: T2, SUMO hydrolase Ulp1 (Saccharomyces cerevisiae, UniProt Q02724); assay: In vitro cleavage of purified SUMO fusion proteins by SUMO hydrolase Ulp1; type: biochemical, yeast
T2 construct: C-terminal His-tagged SUMO hydrolase/protease Ulp (403–621)p (21) (27) was expressed from pET24d; His tag (C); made in house; host or cells: E. coli Rosetta (DE3) pLysS, vector pET24d
T2 sequence (Q02724 403-621): T1 sequence (Q02724 403-621)

[3] = protease inhibitors, 10 mM per FIG. 17 legend

**Q.** `CC(C)C[C@H](NC(=O)[C@H]1O[C@@H]1C(=O)O)C(=O)NCCCCN=C(N)N` [E-64] was tested. Which “Effect of protease inhibitor on Ulp1 hydrolase activity” value (shortened to “Effect of protease inhibitor”) (Ulp1 Hydrolase; [3]) did it give?
**A.** Cysteine protease inhibitor; no affect

**Q.** `O=C(O)CN(CCN(CC(=O)O)CC(=O)O)CC(=O)O` [EDTA] was tested. Which “Effect of protease inhibitor” value (Ulp1 Hydrolase; [3]) did it give?
**A.** no effect; also recorded: Metalloprotease inhibitor; no affect

**Q.** Which Ulp1 activity remaining (Ulp1 Hydrolase) does the source give for `Cl.N=C(N)N` [Gdm HCl, guanadinium hydrochloride] here?
**A.** Ulp1 shows 50% activity in 0.5 M but is completely

**Q.** What about the Ulp1 activity remaining (Ulp1 Hydrolase; listed as guanadinium hydrochloride) of the same compound?
**A.** 50%

**Q.** And the “Effect on Ulp1 hydrolase activity” value (Ulp1 Hydrolase; 1 M Gdm HCl)?
**A.** inactive in 1 M concentrations

**Q.** How did the “Effect on Ulp1 hydrolase activity” value (Ulp1 Hydrolase; imidazole 0 to 300 mM) turn out when `c1c[nH]cn1` [Imidazole] was run?
**A.** Ulp1 shows similar activity in the range of

**Q.** What about the “Effect on Ulp1 hydrolase activity” value (Ulp1 Hydrolase; imidazole 0 to 300 mM, listed as imidazole) of the same compound?
**A.** remarkably active

**Q.** `CC(=O)N[C@@H](CC(C)C)C(=O)N[C@@H](CC(C)C)C(=O)N[C@H](C=O)CCCNC(=N)N` [Leupeptin] was tested. Which “Effect of protease inhibitor” value (Ulp1 Hydrolase; [3]) did it give?
**A.** no effect; also recorded: like specificity; no affect

**Q.** Which “Effect of protease inhibitor” value (Ulp1 Hydrolase; enzyme preincubated with inhibitor before addition of substrate, listed as N-ethymaleimide) does the source give for `CCN1C(=O)C=CC1=O` [N-ethylmaleimide] here?
**A.** active

**Q.** Which “Effect of protease inhibitor” value (Ulp1 Hydrolase; [3]) does the source give for `O=S(=O)(F)Cc1ccccc1` [PMSF] here?
**A.** no effect; also recorded: Serine protease inhibitor; no affect

**Q.** With `CC(C)CC(=O)N[C@H](C(=O)N[C@H](C(=O)N[C@@H](CC(C)C)[C@@H](O)CC(=O)N[C@@H](C)C(=O)N[C@@H](CC(C)C)[C@@H](O)CC(=O)O)C(C)C)C(C)C` [Pepstatin] (Isovaleryl-VV[Sta]A[Sta]-OH) as the compound, how does the “Effect of protease inhibitor” value (Ulp1 Hydrolase; [3]) read?
**A.** no effect; also recorded: Aspartate protease inhibitor; no affect

**Q.** Which “Effect on Ulp1 hydrolase activity” value (Ulp1 Hydrolase; 0.01% SDS) does the source give for `CCCCCCCCCCCCOS(=O)(=O)[O-].[Na+]` [SDS] here?
**A.** highly active and 0.01% SDS blocks activity

**Q.** For `Cc1ccc(S(=O)(=O)N[C@@H](CCCCN)C(=O)CCl)cc1.Cl` [TLCK-HCl], which “Effect of protease inhibitor” value (Ulp1 Hydrolase; [3]) is on record?
**A.** chymotrypsin-like specificity; no affect

**Q.** What about the “Effect of protease inhibitor” value (Ulp1 Hydrolase; protease inhibitors, 10 mM per FIG. 17 legend, listed as TLCK) of the same compound?
**A.** no effect

**Q.** With `NC(N)=O` [Urea] as the compound, how does the “Effect on Ulp1 hydrolase activity” value (Ulp1 Hydrolase; urea up to and including 2 M, listed as urea) read?
**A.** did not effect the activity; also recorded: does not inhibit the hydrolase

**Q.** “SUMO-GFP: SUMO fused to N-terminus of GFP (SEQ ID NO: 5)” was tested. Which “Solubility of UBL-GFP fusion (soluble panel of stained gel)” value (E. coli [1]; 26° C. overnight, FIG. 4B) did it give?
**A.** able to solubilize fused GFP

**Q.** And the “Solubility of UBL-GFP fusion (soluble panel of stained gel)” value (E. coli [1]; 37° C., FIG. 4A)?
**A.** able to solublize the GFP

**Q.** What about the “GFP fluorescence of soluble fraction (correct folding)” value (E. coli [2]) of the same compound?
**A.** able to fluoresce

**Q.** And the “In vitro cleavage by Ulp1 / SUMO hydrolase” value (SUMO hydrolase Ulp1; purified fusion protein from E. coli)?
**A.** completely digested

**Q.** “SUMO-β-galactosidase: SUMO fusion of E. coli β-galactosidase, a 110 KDa protein (SEQ ID NO: 31)” was tested. Which “Share of protein cleaved by SUMO hydrolase” value (SUMO hydrolase Ulp1; 20 minutes, room temperature) did it give?
**A.** 100%

**Q.** Which “Effect on Ulp1 hydrolase activity” value (Ulp1 Hydrolase; up to 1% triton X 100) does the source give for Triton-X here?
**A.** highly active
